One may read the Kd as a measure of binding affinity in units of concentration.

Bridge positions count the residues as written; N and C are the ends. Ends that are not written are not given here.

Kd data for two molecules are collected here from PMC5005324, “Unique Footprint in the scl1.3 Locus Affects Adhesion and Biofilm Formation of the Invasive M3-Type Group A Streptococcus” (Frontiers in Cellular and Infection Microbiology, 2016).

Assay [1] concerns the target rScl1.3FL. Description: Surface plasmon resonance binding of C-C′ cyclic peptide to immobilized rScl1.3FL. The note with it: Biacore 3000, 25°C; rScl1.3FL immobilized on streptavidin chip (~100 RU); peptide 10-500 μM; HBS buffer pH 7.4; 1:1 Langmuir model; duplicates; read-out: dissociation constant KD (SPR). Also on record: species or system Streptococcus pyogenes (M3-type GAS, MGAS315). On the procedure:
Real time binding assays were performed at 25°C on a Biacore 3000 Surface Plasmon Resonance (SPR) instrument (GE Healthcare). For immobilization, rScl1.3FL protein containing the C-terminal Strep-tag II was injected at a concentration of 40 μM on streptavidin-coated sensor chip, SA Biacore, until the desired level of immobilization was achieved (averaged value of 100 RU). Binding assays were carried out by injecting the C-C′ cyclic peptide at concentrations ranging between 10 and 500 μM. Experiments were carried out in HBS buffer (10 mM HEPES, 150 mM NaCl, 3 mM EDTA, pH 7.4). The association phase (kon) was followed for 270 s, whereas the dissociation phase (koff) was followed for 300 s. The reference chip sensorgrams were subtracted from sample sensorgrams. Experiments were carried out in duplicates. Kinetic parameters were estimated assuming a 1:1 Langmuir binding model and using version 4.1 Evaluation Software (GE Healthcare).
For orientation: SPR reads the build-up and loss of mass on a sensor chip optically.

Assay [2] concerns the target rScl1.3FL. Description: Tryptophan fluorescence quenching binding assay in solution. The note with it: rScl1.3FL 30 μM, peptide 0-300 μM, 25.0°C, excitation 298 nm, emission 333 nm; 1:1 model; duplicates. Details: species or system Streptococcus pyogenes (M3-type GAS, MGAS315). On the procedure:
rScl1.3FL protein, at a concentration of 30 μM, was incubated with increasing concentrations of C-C′ cyclic peptide (0–300 μM) at 25.0°C, using an excitation wavelength of 298.0 nm and a fluorescence emission wavelength ranging from 300 to 400 nm. The acquisition parameters were set as follows: excitation and emission slits at 5 nm; 120 nm/min scan rate; 1.00 nm data interval averaging time at 0.500 s, PMT voltage at “high.” Fluorescence values were recorded at 333 nm, and subtracted from the fluorescence intensity of the ligand-free protein, generating −Δfluorescence. The −Δfluorescence values were plotted against the peptide concentration (Williamson, [2013]). Experiments were carried out in duplicates. A control assay was carried out employing the buffer as titrant to assess that the dilution effect was under 3%, not affecting the results.

For assay [3], the target named is recombinant full-length Scl1.3FL protein (streptococcal collagen-like protein 1, M3-type, repaired allele) (Streptococcus pyogenes (group A Streptococcus), M3-type strain MGAS315). The experiment in a line: other fluorescence titration; tryptophan fluorescence quenching in solution; rScl1.3FL at 30 μM with 0-300 μM C-C′ cyclic peptide, 25.0°C, excitation 298 nm, read at 333 nm; 1:1 model.

Assay [4] has the same target. Description: SPR; Biacore 3000, 25°C; rScl1.3FL with C-terminal Strep-tag II immobilised on a streptavidin-coated SA chip (about 100 RU); C-C′ cyclic peptide injected at 10-500 μM; HBS buffer (10 mM HEPES, 150 mM NaCl, 3 mM EDTA, pH 7.4); 1:1 Langmuir model.

For “CRVTYSSPEDGIHELFC (disulfide 1-17 (inferred)) [C-C′ cyclic peptide, Disulfide-cyclised, acetylated and amidated peptide mimicking the C-C′ β-hairpin of the EDA domain of cellular fibronectin]”, the equilibrium dissociation constant (Kd) at rScl1.3FL [1] is 63.3 µM; on rScl1.3FL [2], 44.5 ± 9 µM.

B1: C-C′ cyclic peptide (EDA-derived, mimics the C-C′ β-hairpin of the extra domain A of cellular fibronectin) (peptide)
peptide: Ac-CRVTYSSPEDGIHELFC-NH2
modifications: disulfide 1-17
SMILES: CC[C@H](C)[C@@H]1NC(=O)CNC(=O)[C@H](CC(=O)O)NC(=O)[C@H](CCC(=O)O)NC(=O)[C@@H]2CCCN2C(=O)[C@H](CO)NC(=O)[C@H](CO)NC(=O)[C@H](Cc2ccc(O)cc2)NC(=O)[C@H]([C@@H](C)O)NC(=O)[C@H](C(C)C)NC(=O)[C@H](CCCNC(=N)N)NC(=O)[C@@H](NC(C)=O)CSSC[C@@H](C(N)=O)NC(=O)[C@H](Cc2ccccc2)NC(=O)[C@H](CC(C)C)NC(=O)[C@H](CCC(=O)O)NC(=O)[C@H](Cc2c[nH]cn2)NC1=O
Regarding B1, the Kd stood at 44.5 µM in assay [3] and 63.3 µM in assay [4].
